These results are taken from article PMC7536072, “Molecular and functional characterization of somatostatin-type signalling in a deuterostome invertebrate” (Open Biology, 2020).

Entries after “also recorded” stand apart in the source; their conditions may differ. Bridges are numbered along the chain shown (N, C = ends). Where no end group is shown, it is not given here.

In one assay the test system is ArSSR2. Briefly: GFP-aequorin luminescence receptor activation assay, CHO-K1 cells, ArSSR2 + Gα16. The class given is cell-based, Asterias rubens.
In assay [1] the test system is CHO-K1 cells transfected with an empty pcDNA3.1(+) vector. The experiment in a line: luminescence control assay, CHO-K1 cells transfected with empty vector. It is filed as cell-based, Chinese hamster. As to conditions: 10^-12 to 10^-5 M (figure S12), 0.1 % Triton X-100 = 100%. The protocol: In order to characterize the candidate SS-type receptors, a G-protein-dependent receptor activation assay was employed. Chinese hamster ovary (CHO)-K1 cells stably overexpressing the calcium-sensitive bioluminescent reporter GFP-aequorin fusion protein (G5A) were used as a heterologous expression system. Plasmids containing A. rubens SS-type receptor cDNAs were co-transfected with the promiscuous human Gα16, which is widely used for receptor deorphanization assays. […] After 3 h incubation, a fixed volume of cells was injected sequentially into each well containing different concentrations of peptides using a FLUOstar Omega Plate Reader (BMG LABTECH, Ortenberg, Germany). Luminescence values were recorded over a 35 s period after injection. The total luminescence of each well over the 35 s period was calculated and normalized to the maximum value obtained in each experiment (100% activation) and to the value obtained with the vehicle media (0% activation). […] EC50 values were calculated from dose–response curves using Prism 6. The luminescence responses triggered by 10^−5 M ArSS1, 10^−5 M ArSS2 and vehicle media were analysed by one-way ANOVA using Bonferroni's multiple comparisons post hoc test in Prism 6. […]

Take “RAKNARCMADFWKGRGLVDC (disulfide 7-20 (inferred)) [ArSS2]”: the EC50 in the assay on ArSSR2 (ArSSR2 + Gα16 in CHO-K1 cells expressing GFP-aequorin (G5A), peptide 10^−21 to 10^−4 M, luminescence over 35 s, mean of at least three independent experiments, three repeats each, read-out: half-maximal response concentration (EC50)) was found to be 4.2 pM. Also, the “mean total luminescence response relative to background” value with ArSSR2 (ArSSR2, 10^−5 M, background detected with assay media or with ArSS1) is recorded as 166 303 times the background luminescence. Also, the “luminescence compared with control” value in the assay with ArSSR2 (ArSSR2, 10^−5 M, vs BSA media (control) and, for ArSS2, vs ArSS1, one-way ANOVA, Bonferroni) is given as “significantly higher than the luminescence in cells exposed to ArSS1 or BSA media (control)”. For the same sequence, the triggering of luminescence entry with ArSSR2 (ArSSR2, 10^−21 to 10^−4 M) is reported as “caused dose-dependent luminescence”. Moreover, the “luminescence response in cells with empty vector” value in assay [1] was “do not trigger luminscence; also recorded: Neither ArSS1 nor ArSS2 elicited responses”.
